One assay concerns A. baumannii ATCC 17691. As to conditions: cited from earlier work.
A further assay has as its system Mtb. Briefly: anti-tuberculosis activity (whole cell). The class given is cell-based, Mycobacterium tuberculosis.

For `N[C@@H](C(=O)N[C@@H]1C(=O)N2C(C(=O)O)=C(Cl)CC[C@H]12)c1ccccc1` [Lorabid], in the assay on A. baumannii ATCC 17691, the “activity against Acinetobacter baumannii” value is listed as “not active”.

As to `C[C@@H]1CC[C@H]2[C@@H](C)C(=O)O[C@@H]3O[C@@]4(C)CC[C@@H]1[C@]32OO4` [artemisinin], in the assay on Mtb, the activity against tuberculosis entry is “not active”.

The values are drawn from patent US20190352691A1, “PATHOGEN DETECTION” (priority 2013, published 2019).
